In patent US11717598B2, “Operating room coating applicator and method” (Ethicon, Inc., priority 2018, dated 2023):

Tests used:
Staphylococcus aureus = test: zone of inhibition test of triclosan-coated stainless steel coupon on agar plate; assay type: cell-based; details: triclosan coating on 0.5" polished 316 stainless steel coupon; incubated at 38° C. for 24 hours; inoculum of 10^5 bacteria per cubic centimeter; 80 mm diameter plate
Source text: A filter paper disk, or other object, impregnated with a particular antimicrobial agent is applied to an agar medium that is inoculated with the test organism. Where the anti-microbial agent diffuses through the medium, and as long as the concentration of the antimicrobial agent is above the MIC, none of the susceptible organism will grow on or around the disk for some distance. This distance is called a zone of inhibition. […] The diameter of the zone of inhibition is inversely proportional to the MIC.
A triclosan coating was applied to a 0.5″ polished 316 stainless steel coupon using the device described in FIGS. 1 and 2 according to the cycle described in FIG. 10. The stainless steel coupon was then incubated at 38° C. for 24 hours on an agar plate containing an initial Staphylococcus aureus inoculum of 10^5 bacteria per cubic centimeter of solution.

S. aureus = details: measured in a suitable growth medium; Bhargava, H. et al, American Journal of Infection Control, June 1996; cited from earlier work

SMILES: Oc1cc(Cl)ccc1Oc1ccc(Cl)cc1Cl [triclosan, 2,4,4′-trichloro-2′-hydroxydiphenyl ether]
- zone of inhibition (Staphylococcus aureus): approximately 40 mm
- minimum inhibitory concentration (MIC) against S. aureus (S. aureus): 0.01 ppm
